PubChem BioAssay (NCI)
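Interpolation was linear, between the two tested concentrations surrounding the appropriate level; five concentrations were tested over 48 hours in 96-well plates. The concentration for full growth arrest is given as TGI.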

Experiments:
Assay in all cases: NCI anticancer screen, dose series, 48 h
NCI-H226 lung = tested on: NCI-H226 lung
OVCAR-4 ovarian = tested on: OVCAR-4 ovarian
K-562 leukemia = tested on: K-562 leukemia
SK-MEL-2 melanoma = tested on: SK-MEL-2 melanoma
NCI-H522 lung = tested on: NCI-H522 lung
COLO 205 colon = tested on: COLO 205 colon
LOX IMVI melanoma = tested on: LOX IMVI melanoma
TK-10 renal = tested on: TK-10 renal
HOP-62 NSCLC = tested on: HOP-62 NSCLC
SK-OV-3 ovarian = tested on: SK-OV-3 ovarian
A498 renal = tested on: A498 renal
ACHN renal = tested on: ACHN renal
PC-3 prostate = tested on: PC-3 prostate
MCF7 breast = tested on: MCF7 breast
UACC-62 melanoma = tested on: UACC-62 melanoma
HCT-116 colon = tested on: HCT-116 colon
SF-295 CNS = tested on: SF-295 CNS
CAKI-1 renal = tested on: CAKI-1 renal
SW-620 colon = tested on: SW-620 colon
SNB-75 CNS = tested on: SNB-75 CNS
MALME-3M melanoma = tested on: MALME-3M melanoma
M14 melanoma = tested on: M14 melanoma
MDA-N = tested on: MDA-N
OVCAR-3 ovarian = tested on: OVCAR-3 ovarian
KM12 colon = tested on: KM12 colon
RPMI-8226 leukemia = tested on: RPMI-8226 leukemia
A549 NSCLC = tested on: A549 NSCLC
SR leukemia = tested on: SR leukemia
DU-145 prostate = tested on: DU-145 prostate
SF-539 CNS = tested on: SF-539 CNS
HCC-2998 colon = tested on: HCC-2998 colon
EKVX NSCLC = tested on: EKVX NSCLC
CCRF-CEM leukemia = tested on: CCRF-CEM leukemia
OVCAR-8 ovarian = tested on: OVCAR-8 ovarian
HS 578T breast = tested on: HS 578T breast
HOP-92 NSCLC = tested on: HOP-92 NSCLC
T-47D breast = tested on: T-47D breast
SK-MEL-28 melanoma = tested on: SK-MEL-28 melanoma
U251 CNS = tested on: U251 CNS
UO-31 renal = tested on: UO-31 renal
NCI-H460 lung = tested on: NCI-H460 lung
NCI-H23 lung = tested on: NCI-H23 lung
OVCAR-5 ovarian = tested on: OVCAR-5 ovarian
HT29 colon = tested on: HT29 colon
SK-MEL-5 melanoma = tested on: SK-MEL-5 melanoma
SNB-19 CNS = tested on: SNB-19 CNS
IGROV1 ovarian = tested on: IGROV1 ovarian
MDA-MB-435 = tested on: MDA-MB-435
SF-268 CNS = tested on: SF-268 CNS
HL-60(TB) leukemia = tested on: HL-60(TB) leukemia
HCT-15 colon = tested on: HCT-15 colon
UACC-257 melanoma = tested on: UACC-257 melanoma
MOLT-4 leukemia = tested on: MOLT-4 leukemia

Measured: TGI

Nc1ccc(C2NC(=O)Cc3c2ccc2ccccc32)cc1 (stereo not drawn)
> 100 µM: NCI-H226 lung | OVCAR-4 ovarian | K-562 leukemia | SK-MEL-2 melanoma | NCI-H522 lung | COLO 205 colon | LOX IMVI melanoma | TK-10 renal | HOP-62 NSCLC | SK-OV-3 ovarian | A498 renal | ACHN renal | PC-3 prostate | MCF7 breast | UACC-62 melanoma | HCT-116 colon | SF-295 CNS | CAKI-1 renal | SW-620 colon | SNB-75 CNS | MALME-3M melanoma | M14 melanoma | MDA-N | OVCAR-3 ovarian | KM12 colon | RPMI-8226 leukemia | A549 NSCLC | SR leukemia | DU-145 prostate | SF-539 CNS | HCC-2998 colon | EKVX NSCLC | CCRF-CEM leukemia | OVCAR-8 ovarian | HS 578T breast | HOP-92 NSCLC | T-47D breast | SK-MEL-28 melanoma | U251 CNS | UO-31 renal | NCI-H460 lung | NCI-H23 lung | OVCAR-5 ovarian | HT29 colon | SK-MEL-5 melanoma | SNB-19 CNS | IGROV1 ovarian | MDA-MB-435 | SF-268 CNS | HL-60(TB) leukemia | HCT-15 colon | UACC-257 melanoma | MOLT-4 leukemia
